Source: US11773078B2, “Furin inhibitors” (Glaxosmithkline Intellectual Property Development Limited, priority 2018, dated 2023)
Structures can show the parent of a compound that is named as a salt.

Legend:
[1] = biological target: T1, Furin (108-574-Tev-Flag-His) enzyme (Homo sapiens, UniProt P09958); test: Furin enzyme assay; type: biochemical
T1 construct: Furin (108-574-Tev-Flag-His) enzyme was expressed and purified from CHO cells; TEV cleavage site (C); FLAG (C); His (C); made in house; host or cells: CHO cells
In short: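 Compounds ran as 11-point threefold dilutions (0.00017–10 μM final) against 40 pM furin, purified from CHO cells, for 2 h at room temperature. Buffer: 100 mM HEPES pH7.5 with 1 mM CaCl2 and 0.005% Triton X-100. Envision readout. Four-parameter curve gives pXC50.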

[2] = biological target: T2, furin (endogenous protease) in U20S cells (Homo sapiens, UniProt P09958); test: Furin cell-based assay (image-based, Golgi-targeted GFP with BMP10 furin/PCSK cleavage site); conditions: 24-hour incubation, read-out: furin golgi cell pXC50 (converted);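 note: Read-out is mean GFP fluorescence of Golgi puncta per cell by high-content imaging, retained when furin inhibited, over an eleven-point 0.00017–10 µM series, four-parameter fit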
T2 construct: the endogenous protease cleaves GFP; endogenous in cells; host or cells: U2OS cells transduced with a BacMam reporter
T2 sequence (P09958 108-794): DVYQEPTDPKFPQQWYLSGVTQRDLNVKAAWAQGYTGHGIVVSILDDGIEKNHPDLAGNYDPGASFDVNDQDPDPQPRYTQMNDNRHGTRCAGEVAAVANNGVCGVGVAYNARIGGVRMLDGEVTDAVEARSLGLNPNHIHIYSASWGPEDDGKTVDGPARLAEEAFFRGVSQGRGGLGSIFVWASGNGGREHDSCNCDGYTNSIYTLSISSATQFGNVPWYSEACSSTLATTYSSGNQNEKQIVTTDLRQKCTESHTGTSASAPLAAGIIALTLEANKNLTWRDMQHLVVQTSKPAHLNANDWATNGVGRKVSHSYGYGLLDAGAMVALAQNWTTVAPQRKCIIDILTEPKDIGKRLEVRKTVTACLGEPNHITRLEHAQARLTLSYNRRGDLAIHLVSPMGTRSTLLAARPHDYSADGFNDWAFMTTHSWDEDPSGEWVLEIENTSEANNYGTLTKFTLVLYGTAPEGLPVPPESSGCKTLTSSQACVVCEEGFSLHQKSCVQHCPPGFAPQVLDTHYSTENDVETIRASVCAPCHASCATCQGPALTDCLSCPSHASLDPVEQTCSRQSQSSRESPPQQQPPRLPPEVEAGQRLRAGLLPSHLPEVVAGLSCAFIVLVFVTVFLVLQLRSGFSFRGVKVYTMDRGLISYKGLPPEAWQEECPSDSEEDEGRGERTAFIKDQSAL

T1 sequence (P09958 108-574): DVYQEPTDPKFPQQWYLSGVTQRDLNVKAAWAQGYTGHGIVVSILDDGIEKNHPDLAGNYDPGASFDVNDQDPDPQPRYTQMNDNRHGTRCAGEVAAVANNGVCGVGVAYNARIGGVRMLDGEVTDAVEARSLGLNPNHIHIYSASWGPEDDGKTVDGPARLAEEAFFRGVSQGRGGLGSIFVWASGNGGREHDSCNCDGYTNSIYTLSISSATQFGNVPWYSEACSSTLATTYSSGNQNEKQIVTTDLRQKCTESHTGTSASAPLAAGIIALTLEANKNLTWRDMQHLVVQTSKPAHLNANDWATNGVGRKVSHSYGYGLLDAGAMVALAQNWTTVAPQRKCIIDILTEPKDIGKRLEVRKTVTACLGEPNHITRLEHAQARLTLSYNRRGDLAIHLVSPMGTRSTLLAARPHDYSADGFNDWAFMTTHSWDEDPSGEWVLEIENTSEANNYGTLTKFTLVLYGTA

Structure (SMILES)	furin enzyme pIC50 [1]	EC50 [2] [µM]
O=C(O)CCN1CCN(c2ncc(Oc3cc(CN4CCC(CNC(=O)C5CC5)CC4)cc(-c4cc(Cl)cc(Cl)c4)n3)cn2)CC1 [Example 84, 3-(4-(5-((4-((4-(cyclopropanecarboxamidomethyl)piperidin-1-yl)methyl)-6-(3,5-dichlorophenyl)pyridin-2-yl)oxy)pyrimidin-2-yl)piperazin-1-yl)propanoic acid]	9.3	0.00794
CP(C)(=O)CC1CCN(Cc2cc(Oc3ccc(N4CCN(CCC(=O)O)CC4)nc3)nc(-c3cc(Cl)cc(Cl)c3)c2)CC1 [Example 85, 3-(4-(5-((6-(3,5-dichlorophenyl)-4-((4-((dimethylphosphoryl)methyl)piperidin-1-yl)methyl)pyridin-2-yl)oxy)pyridin-2-yl)piperazin-1-yl)propanoic acid]	8.1	0.158
NC(=O)CC1CCN(Cc2cc(Oc3cnc(N4CCNCC4)nc3)nc(-c3cc(Cl)cc(Cl)c3)c2)CC1 [Example 86, 2-(1-((2-(3,5-Dichlorophenyl)-6-((2-(piperazin-1-yl)pyrimidin-5-yl)oxy)pyridine-4-yl)methyl)piperidin-4-yl)acetamide, 4 hydrochloride]	8.9	0.01
CN1CCN(c2ncc(Oc3cc(CN4CCC(CCS(N)(=O)=O)CC4)cc(-c4cc(Cl)cc(Cl)c4)n3)cn2)CC1 [Example 87, 2-(1-((2-(3,5-Dichlorophenyl)-6-((2-(4-methylpiperazin-1-yl)pyrimidin-5-yl)oxy)pyridin-4-yl)methyl)piperidin-4-yl)ethanesulfonamide, 4 hydrochloride]	9	0.00398
CC(=O)NCC1CCN(Cc2cc(Oc3cnc(N4CCN(CCC(N)=O)CC4)nc3)nc(-c3cc(Cl)cc(Cl)c3)c2)CC1 [Example 88, 3-(4-(5-((4-((4-(Acetamidomethyl)piperidin-1-yl)methyl)-6-(3,5-dichlorophenyl)pyridin-2-yl)oxy)pyrimidin-2-yl)piperazin-1-yl)propanamide]	9.1	0.00501
CC(=O)NCC1CCN(Cc2cc(Oc3ccc(N4CCNCC4)nc3)nc(-c3cc(Cl)cc(Cl)c3)n2)CC1 [Example 89, N-((1-((2-(3,5-Dichlorophenyl)-6-((6-(piperazin-1-yl)pyridin-3-yl)oxy)pyrimidin-4-yl)methyl)piperidin-4-yl)methyl)acetamide, 4 hydrochloride]	8	0.0126
CC(=O)NCC1CCN(Cc2cc(-c3cc(Cl)cc(Cl)c3)nc(Oc3ccc(N4CCNCC4)nc3)n2)CC1 [Example 90, N-((1-((6-(3,5-Dichlorophenyl)-2-((6-(piperazin-1-yl)pyridin-3-yl)oxy)pyrimidin-4-yl)methyl)piperidin-4-yl)methyl)acetamide]	8.5	0.00794
CC(=O)NCC1(O)CCN(Cc2cc(Oc3cnc(N4CCNCC4)c(F)c3)nc(-c3cc(Cl)cc(Cl)c3)c2)CC1 [Example 91, N-((1-((2-(3,5-Dichlorophenyl)-6-((5-fluoro-6-(piperazin-1-yl)pyridin-3-yl)oxy)pyridin-4-yl)methyl)-4-hydroxypiperidin-4-yl)methyl)acetamide, 4 hydrochloride]	8.4	0.0398
CC(=O)NCC1CCN(Cc2cc(Oc3cnc(N4CCNCC4)nc3)nc(-c3cc(Cl)cc(Cl)c3)c2)CC1 [Example 92, N-((1-((2-(3,5-Dichlorophenyl)-6-((2-(piperazin-1-yl)pyrimidin-5-yl)oxy)pyridin-4-yl)methyl)piperidin-4-yl)methyl)acetamide]	8.9	0.00316
CC(=O)NCC1CCN(Cc2cc(Oc3cnc(N4CCN(CCO)CC4)nc3)nc(-c3cc(Cl)cc(Cl)c3)c2)CC1 [Example 93, N-((1-((2-(3,5-dichlorophenyl)-6-((2-(4-(2-hydroxyethyl)piperazin-1-yl)pyrimidin-5-yl)oxy)pyridin-4-yl)methyl)piperidin-4-yl)methyl)acetamide, 4 hydrochloride]	8.9	0.00501
CNC(=O)CCN1CCN(c2ncc(Oc3cc(CN4CCC(CNC(C)=O)CC4)cc(-c4cc(Cl)cc(Cl)c4)n3)cn2)CC1 [Example 94, 3-(4-(5-((4-((4-(Acetamidomethyl)piperidin-1-yl)methyl)-6-(3,5-dichlorophenyl)pyridin-2-yl)oxy)pyrimidin-2-yl)piperazin-1-yl)-N-methylpropanamide, 4 hydrochloride]	8.9	0.00501
CC(=O)NCC1CCN(Cc2cc(Oc3cnc(N4CCN(C(C)CC(N)=O)CC4)nc3)nc(-c3cc(Cl)cc(Cl)c3)c2)CC1 (centres unmarked) [Example 95, 3-(4-(5-((4-((4-(Acetamidomethyl)piperidin-1-yl)methyl)-6-(3,5-dichlorophenyl)pyridin-2-yl)oxy)pyrimidin-2-yl)piperazin-1-yl)butanamide, 4 hydrochloride]	9.9	0.00158
CC(=O)NCC1CCN(Cc2cc(Oc3cnc(N4CCN(CCCC(N)=O)CC4)nc3)nc(-c3cc(Cl)cc(Cl)c3)c2)CC1 [Example 96, 4-(4-(5-((4-((4-(Acetamidomethyl)piperidin-1-yl)methyl)-6-(3,5-dichlorophenyl)pyridin-2-yl)oxy)pyrimidin-2-yl)piperazin-1-yl)butanamide]	9	0.00158

Continued, values first:

furin enzyme pIC50 [1]	EC50 [2] [µM]	Structure (SMILES)
8.4	0.0251	CNC1CCN(c2ccc(Oc3cc(CNCCOC)cc(-c4cc(Cl)cc(Cl)c4)c3)cn2)CC1 [Example 97, 1-(5-((3′,5′-Dichloro-5-(((2-methoxyethyl)amino)methyl)-[1,1′-biphenyl]-3-yl)oxy)pyridin-2-yl)-N-methylpiperidin-4-amine]
8.7	0.0398	CNCc1cc(Oc2ccc(N3CCNCC3)nc2)cc(-c2cc(Cl)cc(Cl)c2)c1 [Example 98, 1-(3′,5′-Dichloro-5-((6-(piperazin-1-yl)pyridin-3-yl)oxy)-[1,1′-biphenyl]-3-yl)-N-methylmethanamine, 3 hydrochloride]
7.2	0.251	NCCNc1ccc(Oc2cc(CN3CCOCC3)cc(-c3cc(Cl)cc(Cl)c3)c2)cn1 [Example 99, N^1-(5-((3′,5′-Dichloro-5-(morpholinomethyl))-[1,1′-biphenyl]-3-yl)oxy)pyridin-2-yl)ethane-1,2-diamine, 3 hydrochloride]
8.8	0.0794	CNCc1cc(Oc2ccc(N3CCC(N)CC3)nc2)cc(-c2cc(Cl)cc(Cl)c2)c1 [Example 100, 1-(5-((3′,5′-Dichloro-5-((methylamino)methyl)-[1,1′-biphenyl]-3-yl)oxy)pyridin-2-yl)piperidin-4-amine, 3 hydrochloride]
8.6	3.16	CNCc1cc(Oc2ccc(NCCCN)nc2)cc(-c2cc(Cl)cc(Cl)c2)c1 [Example 101, N^1-(5-((3′,5′-Dichloro-5-((methylamino)methyl)-[1,1′-biphenyl]-3-yl)oxy)pyridin-2-yl)propane-1,3-diamine]
9.2	0.0158	CNCc1cc(Oc2ccc(N3CCNC(C)(C)C3)nc2)cc(-c2cc(Cl)cc(Cl)c2)c1 [Example 102, 1-(3′,5′-Dichloro-5-((6-(3,3-dimethylpiperazin-1-yl)pyridin-3-yl)oxy)-[1,1′-biphenyl]-3-yl)-N-methylmethanamine, 3 hydrochloride]
